This passage reports T/C ratio results from patent publication US20040180035A1, “IL-15 immunoconjugates and uses thereof” (EMD Lexigen Research Center Corp., priority 1998, published 2004).

The experiment relates to LLC-Ep tumors. As to the kind of experiment: LLC-Ep subcutaneous tumor growth in C57BL/6 mice (Example 6). In kind it is in vivo. As to conditions: after treatment for 22 days; fusion protein 25 μg/mouse i.v., 5 daily injections; indomethacin 20 μg/mL in drinking water. As for the experimental part:
Female C57B1/6 mice were injected subcutaneously in the mid-back with LLC-Ep cells (2×10^6 cells per injection). When the tumors reached 600-1200 mm^3, the mice were sacrificed. The skin overlying the tumor was cleaned with betadine and ethanol, the tumors excised and necrotic tissue discarded. A suspension of tumor cells in phosphate buffered saline was prepared by passing viable tumor tissue through a sieve and then through a series of sequentially smaller […] needles of 22- to 30-gauge. The cells were adjusted to a concentration of 1×10^7 cells/mL and placed on ice. C57BL/6 mice then were injected with 0.1 mL of the freshly resuspended cells (1×10^6 cells/mouse) in the proximal midline of the subcutaneous dorsa.
When the tumors reached 100-200 mm^3 in size (about 7 to 14 days), the mice were randomized into four groups, 5 mice per group. Group 1 received intravenous injections of 0.2 mL of PBS daily. Group 2 received 5 daily intravenous injections of huKS-huγ1-huIL2 (25 μg/mouse) in PBS. Group 3 received indomethacin orally in drinking water (20 μg/mL, or about 60-70 μg of indomethacin consumed daily per mouse) throughout the treatment period. Group 4 received 5 daily intravenous injections of huKS-huγ1-huIL2(25 μg/mouse), and indomethacin orally in drinking water (20 μg/mL) throughout the treatment period. Tumor volumes were measured as described in Example 3. […]

As for `COc1ccc2c(c1)c(CC(=O)O)c(C)n2C(=O)c1ccc(Cl)cc1` [indomethacin], the T/C ratio is recorded as 0.60.
